# From patent US20250179040A1, “HISTAMINE H3 RECEPTOR ANTAGONISTS AND THEIR PHARMACEUTICAL USES” (HANGZHOU BIO-SINCERITY PHARMA-TECH CO., LTD., priority 2022, published 2025)
# Assays:
# [1] = molecular target: hERG channel (Homo sapiens, UniProt Q12809); assay: in vitro; details: Average inhibition rate (%) on hERG channel
# Source text: In cardiomyocytes, inhibition of the delayed rectifier potassium current (IKr) channel protein encoded by the human Ether-a-go-go Related Gene (hERG) is the most important mechanism by which drugs lead to prolongation of the QT interval. hERG is characterized by a specific molecular structure, which allows it to be inhibited by different structures, leading to severe arrhythmias. Statistically, 25-40% of lead compounds show varying degrees of hERG-related toxicity. Therefore, early evaluation of the effects of compounds on hERG is crucial in the drug development process.
# The inhibition rate of compounds on hERG channels was examined by manual membrane clamp technique on HEK293 cell line which is stably expressing hERG ion channels.
# [2] = test system: CCI model rats; assay: Analgesic effect, chronic constriction injury (CCI) model, mechanical withdrawal threshold; type: in vivo, SD rats
# Source text: Exposing the sciatic nerve on male SD rats' (180-200 g) right hind leg, in the anterior segment where the sciatic nerve is about to bifurcate, use sterile chromic gut thread (No. 4, 0.15 mm in diameter) to ligate 4 loops loosely, with each loop 1-2 mm apart, and suture the muscle and skin to establish the chronic constriction injury (CCI) model. In the sham-operated group, only the sciatic nerve was exposed without ligation, and the muscle and skin were sutured. The mechanical withdrawal threshold was detected by electronic analgesia meter (IITC-2391) on the 7th day for 2 consecutive days.
# The CCI model rats with stabilized mechanical withdrawal thresholds were randomly divided into five groups, named model group (model), pregabalin group (Pre, 30 mg/kg), BIOS-B-12 compound group (3 mg/kg), BIOS-B-12 compound group (1 mg/kg), and BIOS-B-12 compound group (0.3 mg/kg), and were administered at 1 mL/100 g by gavage, and the same column of saline was gavaged in Sham an model group. The basic value was determined before drug administration, and the mechanical withdrawal thresholds were detected at 0.5 h, 1 h, 2 h, 4 h, 6 h, and 24 h after a single drug administration, and the p value was calculated by ANOVA with T-test.
# The CCI model rats with stabilized mechanical withdrawal thresholds were randomly divided into three groups, named model group (model), pregabalin group (Pre, 30 mg/kg), and BIOS-B-14 compound group (1 mg/kg), and were administered at 1 mL/100 g by gavage, and the same column of saline was gavaged in Sham and model group. The basic value was determined before drug administration, and the mechanical withdrawal thresholds were detected at 0.5 h, 1 h, 2 h, 4 h, and 6 h after a single drug administration, and the p value was calculated by ANOVA with T-test.
# [3] = molecular target: histamine H3 receptor (Homo sapiens, UniProt Q9Y5N1); assay: FLPPR assay, antagonistic activity on histamine H3 receptor; type: cell-based
# histamine H3 receptor, sequence (Q9Y5N1 whole entry, species assumed): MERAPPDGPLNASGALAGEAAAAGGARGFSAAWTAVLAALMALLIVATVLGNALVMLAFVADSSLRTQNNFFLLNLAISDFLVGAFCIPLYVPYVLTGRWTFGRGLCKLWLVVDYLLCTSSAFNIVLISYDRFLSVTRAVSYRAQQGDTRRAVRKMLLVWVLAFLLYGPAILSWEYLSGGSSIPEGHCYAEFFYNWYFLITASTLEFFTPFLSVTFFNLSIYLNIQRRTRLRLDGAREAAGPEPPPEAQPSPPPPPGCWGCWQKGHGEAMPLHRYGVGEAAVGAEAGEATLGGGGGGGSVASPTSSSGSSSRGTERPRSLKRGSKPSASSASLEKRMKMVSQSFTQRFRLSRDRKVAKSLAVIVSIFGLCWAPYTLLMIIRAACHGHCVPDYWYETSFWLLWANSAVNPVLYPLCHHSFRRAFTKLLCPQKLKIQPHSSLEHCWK
# Protocol: The FLPPR assay (NIH Assay Guidance Manual: HTS Assay Validation-Section 4.3. Analysis (Potency), htpps://www.ncbi.nlm.nih.gov/books/NBK83783) was performed using SUVN-G3031 as a positive control, and 21 target compounds were tested for the antagonistic activity target to histamine H3 receptor.
# [4] = test system: histamine-induced scratching; assay: Antipruritic ability, histamine-induced scratching in mice; type: in vivo, C57BL/6J mice
# Protocol: The C57BL/6J male mice, with 6-8 weeks old, were randomly divided into model group (Model), BIOS-B-12 compound group (10 mg/kg), BIOS-B-18 compound group (10 mg/kg) and dexamethasone group (Dex, 3 mg/kg), with 7 animals in each group. The mice were injected subcutaneously with 500 μg/50 μL histamine at the back of the neck after the administration of dexamethasone for 1 h, BIOS-B-12 for 4 h, and BIOS-B-18 for 1 h, respectively, and immediately observed for 30 min. The number of scratched was recorded and the inhibition rate was calculated as (Model-Compound)/Model×100%.
# [5] = BIOS-B-12 3, 1, 0.3 mg/kg vs pregabalin 30 mg/kg, FIG. 1 study
# hERG channel, sequence (Q12809 whole entry): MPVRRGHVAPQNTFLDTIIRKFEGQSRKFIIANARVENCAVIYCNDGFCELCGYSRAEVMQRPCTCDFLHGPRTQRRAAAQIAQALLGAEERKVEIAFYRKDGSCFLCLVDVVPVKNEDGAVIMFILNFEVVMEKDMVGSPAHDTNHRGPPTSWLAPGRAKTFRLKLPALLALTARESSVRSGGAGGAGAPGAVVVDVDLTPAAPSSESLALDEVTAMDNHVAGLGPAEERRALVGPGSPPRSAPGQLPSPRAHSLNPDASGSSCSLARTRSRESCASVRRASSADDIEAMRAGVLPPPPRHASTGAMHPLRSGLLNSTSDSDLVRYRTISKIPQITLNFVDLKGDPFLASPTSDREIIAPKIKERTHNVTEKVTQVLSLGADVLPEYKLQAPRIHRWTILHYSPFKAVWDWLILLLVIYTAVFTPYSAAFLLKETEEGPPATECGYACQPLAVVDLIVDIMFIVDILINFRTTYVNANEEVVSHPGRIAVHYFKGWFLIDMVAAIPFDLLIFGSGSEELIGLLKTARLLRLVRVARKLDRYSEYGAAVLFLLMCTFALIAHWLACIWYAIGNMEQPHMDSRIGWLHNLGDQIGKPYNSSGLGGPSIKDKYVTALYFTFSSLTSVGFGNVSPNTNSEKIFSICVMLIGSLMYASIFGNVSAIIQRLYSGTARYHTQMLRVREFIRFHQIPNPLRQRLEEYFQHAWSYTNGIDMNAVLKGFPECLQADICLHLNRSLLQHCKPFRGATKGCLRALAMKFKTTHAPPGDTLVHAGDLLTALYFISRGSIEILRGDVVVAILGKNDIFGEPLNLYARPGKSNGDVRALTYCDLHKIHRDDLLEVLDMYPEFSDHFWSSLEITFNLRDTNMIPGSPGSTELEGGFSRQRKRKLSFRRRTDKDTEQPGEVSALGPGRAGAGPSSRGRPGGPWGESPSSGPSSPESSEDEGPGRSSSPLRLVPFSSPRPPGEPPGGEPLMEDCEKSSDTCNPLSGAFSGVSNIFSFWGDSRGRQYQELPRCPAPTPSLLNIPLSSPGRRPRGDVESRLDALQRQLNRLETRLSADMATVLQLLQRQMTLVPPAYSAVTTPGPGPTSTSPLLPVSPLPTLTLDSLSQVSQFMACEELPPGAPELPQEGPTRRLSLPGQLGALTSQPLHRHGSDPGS
smiles,measurement,setting,value
"O=C(CN1CCN(C2CCC2)CC1)Nc1ccc(OC2CC(N3CCCCC3)C2)cc1 (stereo not drawn) [BIOS-B-12, 2-(4-cyclobutylpiperazin-1-yl)-N-(4-(3-(piperidin-1-yl)cyclobutoxy)phenyl)acetamide]",inhibition at 10 µM,[1],2.06%
same,mechanical withdrawal thresholds vs model group,"[2]; 0.3 mg/kg single dose by gavage, 1 h to 2 h after administration, P<0.05, FIG. 1",significantly different
same,mechanical withdrawal thresholds vs model group,"[2]; 1 mg/kg single dose by gavage, 0.5 h to 6 h after administration, P<0.01, FIG. 1",significantly different
same,mechanical withdrawal thresholds vs model group,"[2]; 3 mg/kg single dose by gavage, 0.5 h to 24 h after administration, P<0.01, FIG. 1",significantly different
same,level of analgesia compared with pregabalin,[2]; [5],superior to that of pregabalin
same,period of analgesia time compared with pregabalin,[2]; [5],longer period of analgesia time
same,"mechanical withdrawal thresholds in the CCI model rats, dose dependence","[2]; single dose at 3, 1 and 0.3 mg/kg, FIG. 1",dose-dependently increasing
same,inhibition at 0.005 µM,[3]; read-out: % Inh-AVERAGE @ 5 nM,99.1%
same,inhibition at 0.05 µM,[3]; read-out: % Inh-AVERAGE @ 50 nM,98.8%
same,number of histamine-induced scratched in mice,[4]; 10 mg/kg,reduced
same,antipruritic effect compared with positive control dexamethasone,[4]; 10 mg/kg vs dexamethasone 3 mg/kg,more effective than the positive control
same,Inhibition Rate (%) of number of scratches,"[4]; BIOS-B-12 10 mg/kg 4 h, BIOS-B-18 10 mg/kg 1 h, Dex 3 mg/kg 1 h before histamine 500 μg/50 μL s.c., observed 30 min, (Model-Compound)/Model×100%",36.6%
